The text below walks through data of ChEMBL document CHEMBL2321802, “Identification of Potent and Selective Diphenylpropanamide RORγ Inhibitors” (ACS Med Chem Lett, 2013).

Active and inactive are the calls of the source. The calls are words filed in the database; no cut-off is given here. Some results are limits rather than exact numbers.

The subject of one data set is Schneider 2. Description: Antagonist activity at HSV transactivation domain of VP16 expressed in Drosophila Schneider cells co-expressing Gal4-DNA binding domain up to 96 uM. Type of data set: cell-based. The following applies: Human alphaherpesvirus 1.
A short description of data set [1]: Cytotoxicity against human Th17 cells up to 96 uM. Type of data set: cell-based.
Data set [2] deals with T1, Nuclear receptor ROR-alpha (Homo sapiens) (UniProt P35398).
T1 sequence (whole entry): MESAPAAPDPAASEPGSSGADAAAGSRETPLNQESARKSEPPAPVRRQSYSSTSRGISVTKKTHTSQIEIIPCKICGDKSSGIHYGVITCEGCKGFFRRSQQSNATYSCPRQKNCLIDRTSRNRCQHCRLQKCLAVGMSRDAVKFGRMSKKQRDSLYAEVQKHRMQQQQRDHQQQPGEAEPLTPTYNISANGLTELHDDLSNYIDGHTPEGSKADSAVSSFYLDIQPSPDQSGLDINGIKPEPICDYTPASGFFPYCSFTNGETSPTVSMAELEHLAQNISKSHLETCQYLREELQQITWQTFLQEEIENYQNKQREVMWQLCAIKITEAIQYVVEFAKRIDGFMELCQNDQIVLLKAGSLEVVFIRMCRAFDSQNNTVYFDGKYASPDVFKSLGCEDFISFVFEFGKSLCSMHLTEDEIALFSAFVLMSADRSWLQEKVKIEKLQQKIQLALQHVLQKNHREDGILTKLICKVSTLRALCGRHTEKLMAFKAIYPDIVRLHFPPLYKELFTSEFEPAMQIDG
Description: Antagonist activity at transactivation domain of RORalpha (unknown origin) expressed in Drosophila Schneider cells co-expressing Gal4-DNA binding domain up to 96 uM. In kind it is cell-based. The settings on record: Schneider 2.

For data set [3], the target named is T2, Probable nuclear hormone receptor HR3 (Drosophila melanogaster) (UniProt P31396).
T2 sequence (whole entry): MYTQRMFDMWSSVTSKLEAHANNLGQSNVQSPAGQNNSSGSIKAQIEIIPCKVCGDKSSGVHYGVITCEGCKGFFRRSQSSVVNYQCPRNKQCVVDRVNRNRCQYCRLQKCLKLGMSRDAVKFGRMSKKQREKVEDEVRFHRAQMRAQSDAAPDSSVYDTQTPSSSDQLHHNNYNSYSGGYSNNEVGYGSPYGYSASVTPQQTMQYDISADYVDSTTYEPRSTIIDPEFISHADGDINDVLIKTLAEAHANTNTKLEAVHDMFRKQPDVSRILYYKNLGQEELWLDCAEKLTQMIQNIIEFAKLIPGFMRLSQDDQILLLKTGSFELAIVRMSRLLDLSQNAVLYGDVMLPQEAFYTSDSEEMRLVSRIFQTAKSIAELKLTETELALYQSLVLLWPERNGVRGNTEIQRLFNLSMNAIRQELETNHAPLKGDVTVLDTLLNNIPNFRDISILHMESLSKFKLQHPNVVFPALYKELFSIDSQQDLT
Description: Antagonist activity at Drosophila melanogaster transactivation domain of DHR3 expressed in Drosophila Schneider cells co-expressing Gal4-DNA binding domain up to 96 uM. The settings on record: Schneider 2. Type of data set: cell-based.

In data set [4] the target is T3, Nuclear receptor ROR-gamma (Homo sapiens, UniProt P51449).
T3 sequence (P51449 whole entry): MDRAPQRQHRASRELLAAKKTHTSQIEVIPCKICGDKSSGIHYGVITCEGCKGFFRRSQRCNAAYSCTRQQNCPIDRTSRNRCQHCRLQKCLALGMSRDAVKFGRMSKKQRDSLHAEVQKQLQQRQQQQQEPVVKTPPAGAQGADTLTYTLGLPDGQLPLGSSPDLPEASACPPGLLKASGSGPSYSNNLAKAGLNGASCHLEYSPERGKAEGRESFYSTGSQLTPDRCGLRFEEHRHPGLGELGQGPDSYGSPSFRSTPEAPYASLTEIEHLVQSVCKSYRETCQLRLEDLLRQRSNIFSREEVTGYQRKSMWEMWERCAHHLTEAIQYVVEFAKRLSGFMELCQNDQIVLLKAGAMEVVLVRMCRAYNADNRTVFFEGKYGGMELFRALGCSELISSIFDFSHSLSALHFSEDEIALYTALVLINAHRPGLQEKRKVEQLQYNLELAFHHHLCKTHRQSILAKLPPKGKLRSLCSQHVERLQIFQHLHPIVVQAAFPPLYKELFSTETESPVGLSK
Nature of the data set: Antagonist activity at transactivation domain of RORgammat (unknown origin) expressed in Drosophila Schneider cells co-expressing Gal4-DNA binding domain. Type of data set: cell-based, Schneider 2.

With `COc1cc(OC)c(C(CC(=O)N2CCCC(C)C2)c2ccc3c(c2)OCO3)c(OC)c1` (mixture of isomers), the inhibition entry (with Schneider 2; in data set [2]; in data set [3]) was “inactive” in each case. Moreover, the Activity result in data set [1] is given as “Non-toxic”.

For `COc1cc(O)c(C(CC(=O)N2CCCCC2C)c2ccc3c(c2)OCO3)c(OC)c1` (mixture of isomers), the inhibition result (in the data set with Schneider 2; in data set [2]; in data set [3]) was “inactive” throughout. Moreover, in data set [1], the Activity result is reported as “Non-toxic”.

Turning to `COc1cc(O)c(C(CC(=O)N2C[C@H](C)C[C@H](C)C2)c2ccc(C(F)(F)F)cc2)c(OC)c1` (stereo partly specified), the inhibition result (in the data set with Schneider 2; in data set [2]; in data set [3]) was “inactive” each time. Besides, the Activity entry in data set [1] is listed as “Non-toxic”.

On to `CCN(CC)C(=O)CC(c1ccc2c(c1)OCO2)c1c(O)cc(OC)cc1OC` (stereo unspecified), for which the inhibition entry (in the data set with Schneider 2; in data set [2]; in data set [3]) was “inactive” each time. In addition, the IC50 in data set [4] (read-out: IC50) was more than 50 µM. The Activity entry in data set [1] is “Non-toxic”.

With `COc1cc(O)c(C(CC(=O)N2C[C@@H](C)N[C@@H](C)C2)c2ccc3c(c2)OCO3)c(OC)c1` (stereo partly specified), the inhibition entry (in the data set with Schneider 2; in data set [2]; in data set [3]) was “inactive” each time. In addition, the IC50 entry in data set [4] (schneider 2) is listed as “Not Active”. Also, in data set [1], the Activity result was “Non-toxic”.

With `CC1CCCN(C(=O)CC(c2ccc3c(c2)OCO3)c2cc(-c3ccccc3)ccc2O)C1` (mixture of isomers), the inhibition entry (with Schneider 2; in data set [2]; in data set [3]) was “inactive” throughout. In data set [1], the Activity entry is on record as “Non-toxic”.

Consider `COc1cc(O)c(C(CC(=O)Nc2ccc(C)cc2)c2ccc3c(c2)OCO3)c(OC)c1` (stereo unspecified), for which the inhibition result (in the data set with Schneider 2; in data set [2]; in data set [3]) was “inactive” in each case. Also, the IC50 in data set [4] (read-out: IC50) is more than 50 µM. In data set [1], the Activity result is reported as “Non-toxic”.

Take `COc1cc(O)c(C(CC(=O)N2CCCC(C)(C)C2)c2ccc3c(c2)OCO3)c(OC)c1` (stereo unspecified): the inhibition entry (in the data set on Schneider 2; in data set [2]; in data set [3]) was “inactive” in each case. In addition, the Activity entry in data set [1] was “Non-toxic”.

Take `COc1cccc(C(CC(=O)N2C[C@H](C)C[C@H](C)C2)c2c(O)cc(OC)cc2OC)c1` (stereo partly specified): the inhibition entry (in the data set on Schneider 2; in data set [2]; in data set [3]) was “inactive” throughout. The Activity entry in data set [1] is on record as “Non-toxic”.

Take `COc1ccc(C(CC(=O)N2CCCC(C)C2)c2ccc3c(c2)OCO3)c(O)c1` (mixture of isomers): the inhibition entry (in the data set with Schneider 2; in data set [2]; in data set [3]) was “inactive” throughout. For the same molecule, the Activity result in data set [1] is reported as “Non-toxic”.

Consider `COc1cc(O)c(C(CC(=O)N2CCCCC2)c2ccc3c(c2)OCO3)c(OC)c1` (stereo unspecified), for which the inhibition result (in the data set with Schneider 2; in data set [2]; in data set [3]) was “inactive” throughout. Also, the IC50 in data set [4] (read-out: IC50) came out at 15.7 µM. Further, in data set [1], the Activity result is recorded as “Non-toxic”.

As for `COc1cccc(O)c1C(CC(=O)N1CCCC(C)C1)c1ccc2c(c1)OCO2` (mixture of isomers), the inhibition result (with Schneider 2; in data set [2]; in data set [3]) was “inactive” in each case. For the same molecule, in data set [1], the Activity entry is “Non-toxic”.

For `CCCCNC(=O)CC(c1ccc2c(c1)OCO2)c1c(O)cc(OC)cc1OC` (stereo unspecified), the inhibition result (with Schneider 2; in data set [2]; in data set [3]) was “inactive” in each case. For the same molecule, the Activity entry in data set [1] is reported as “Non-toxic”.

In the case of `COc1cc(O)c(C(CC(=O)N2CCCC2)c2ccc3c(c2)OCO3)c(OC)c1` (stereo unspecified), the inhibition result (with Schneider 2; in data set [2]; in data set [3]) was “inactive” throughout. For the same molecule, the IC50 in data set [4] (read-out: IC50) is more than 50 µM. Also, the Activity entry in data set [1] is “Non-toxic”.

For `COc1ccc(C(CC(=O)N2CCCC(C)C2)c2c(O)cc(OC)cc2OC)cc1` (mixture of isomers), the inhibition result (with Schneider 2; in data set [2]; in data set [3]) was “inactive” throughout. Besides, the IC50 in data set [4] (read-out: IC50) was 2.5 µM. For the same molecule, in data set [1], the Activity entry is reported as “Non-toxic”.

With `COc1cc(O)c(C(CC(=O)N2C[C@H](C)C[C@H](C)C2)c2ccc(Cl)cc2)c(OC)c1` (stereo partly specified), the inhibition entry (in the data set with Schneider 2; in data set [2]; in data set [3]) was “inactive” each time. Also, in data set [1], the Activity entry is on record as “Non-toxic”.

In the case of `COc1cc(O)c(C(CC(=O)N2CCCC(C)C2)c2ccc3c(c2)OCO3)c(OC)c1` (mixture of isomers), the inhibition result (in the data set on Schneider 2; in data set [2]; in data set [3]) was “inactive” throughout. The IC50 in data set [4] (read-out: IC50) is 3.3 µM. Besides, in data set [1], the Activity entry is recorded as “Non-toxic”.

Regarding `COc1cc(O)c(C(CC(=O)N2C[C@@H](C)O[C@@H](C)C2)c2ccc3c(c2)OCO3)c(OC)c1` (stereo partly specified), the inhibition entry (in the data set with Schneider 2; in data set [2]; in data set [3]) was “inactive” in each case. The Activity result in data set [1] is “Non-toxic”.

For `COc1cc(O)c(C(CC(=O)N2CCC(C)CC2)c2ccc3c(c2)OCO3)c(OC)c1` (stereo unspecified), the inhibition entry (in the data set on Schneider 2; in data set [2]; in data set [3]) was “inactive” each time. Also, in data set [1], the Activity result is listed as “Non-toxic”.

As for `COc1ccc(C(CC(=O)N2C[C@H](C)C[C@H](C)C2)c2c(O)cc(OC)cc2OC)cc1` (stereo partly specified), the inhibition result (with Schneider 2; in data set [2]; in data set [3]) was “inactive” in each case. For the same molecule, the Activity entry in data set [1] is recorded as “Non-toxic”.

Turning to `C[C@H]1O[C@@H](O[C@H]2[C@@H](O)C[C@H](O[C@H]3[C@@H](O)C[C@H](O[C@H]4CC[C@@]5(C)[C@H](CC[C@@H]6[C@@H]5C[C@@H](O)[C@]5(C)[C@@H](C7=CC(=O)OC7)CC[C@]65O)C4)O[C@@H]3C)O[C@@H]2C)C[C@H](O)[C@@H]1O` [DIGOXIN], the concentration for half-maximal inhibition (IC50) in data set [4] (read-out: IC50) amounted to 2 µM.

For `COc1cc(O)c(C(CC(=O)N2CCOCC2)c2ccc3c(c2)OCO3)c(OC)c1` (stereo unspecified), the inhibition entry (in the data set on Schneider 2; in data set [2]; in data set [3]) was “inactive” throughout. In addition, the IC50 entry in data set [4] (schneider 2) was “Not Active”. Moreover, the Activity entry in data set [1] is recorded as “Non-toxic”.

Take `COc1cc(O)c(C(CC(=O)N2CCCCCC2)c2ccc3c(c2)OCO3)c(OC)c1` (stereo unspecified): the inhibition result (in the data set with Schneider 2; in data set [2]; in data set [3]) was “inactive” in each case. For the same molecule, the Activity entry in data set [1] is given as “Non-toxic”.

As to `COc1cc(O)c(C(CC(=O)N2C[C@H](C)C[C@H](C)C2)c2ccc(C)cc2)c(OC)c1` (stereo partly specified), the inhibition entry (in the data set with Schneider 2; in data set [2]; in data set [3]) was “inactive” throughout. The Activity entry in data set [1] is “Non-toxic”.

The term IC50 denotes the concentration at which inhibition is half-maximal.
